In ChEMBL document CHEMBL5528011, “Recent progress and applications of small molecule inhibitors of Keap1-Nrf2 axis for neurodegenerative diseases” (Eur J Med Chem, 2024):
Values belong to the molecule of their own block, whether it stands above or below them.

Columns and labels:
[1] = target: Amyloid-beta precursor protein (Homo sapiens, UniProt P05067); assay: Inhibition of amyloid beta 42 (unknown origin) self aggregation by Thioflavin T-based fluorometric assay
[2] = Induction of NQO1 expression in mouse Hepa1c1c7 cells; assay type: functional
[3] = target: T1, Keap1/Nrf2 (Homo sapiens, UniProt Q14145+Q16236); assay: Binding affinity to human Keap1-Nrf2 protein-protein interaction assessed as inhibition constant incubated for 60 mins by fluorescent polarization assay
T1 sequence (Q16236 whole entry): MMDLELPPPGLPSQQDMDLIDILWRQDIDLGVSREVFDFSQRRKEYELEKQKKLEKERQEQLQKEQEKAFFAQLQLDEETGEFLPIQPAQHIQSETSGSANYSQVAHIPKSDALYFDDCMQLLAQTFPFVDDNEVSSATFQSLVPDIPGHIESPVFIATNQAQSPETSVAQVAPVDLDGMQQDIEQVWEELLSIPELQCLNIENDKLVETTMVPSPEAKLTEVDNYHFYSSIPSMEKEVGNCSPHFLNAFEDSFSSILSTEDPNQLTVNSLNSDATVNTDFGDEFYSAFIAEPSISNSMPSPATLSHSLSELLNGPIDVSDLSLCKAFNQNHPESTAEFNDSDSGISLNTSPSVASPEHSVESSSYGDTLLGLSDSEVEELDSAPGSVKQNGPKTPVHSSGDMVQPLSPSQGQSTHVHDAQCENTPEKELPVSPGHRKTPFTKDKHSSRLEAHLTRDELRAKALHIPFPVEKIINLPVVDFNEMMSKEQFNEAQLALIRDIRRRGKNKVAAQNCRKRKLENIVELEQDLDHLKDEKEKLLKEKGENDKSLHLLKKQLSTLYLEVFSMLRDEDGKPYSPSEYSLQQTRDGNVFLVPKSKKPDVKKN
T1 sequence (Q14145 whole entry): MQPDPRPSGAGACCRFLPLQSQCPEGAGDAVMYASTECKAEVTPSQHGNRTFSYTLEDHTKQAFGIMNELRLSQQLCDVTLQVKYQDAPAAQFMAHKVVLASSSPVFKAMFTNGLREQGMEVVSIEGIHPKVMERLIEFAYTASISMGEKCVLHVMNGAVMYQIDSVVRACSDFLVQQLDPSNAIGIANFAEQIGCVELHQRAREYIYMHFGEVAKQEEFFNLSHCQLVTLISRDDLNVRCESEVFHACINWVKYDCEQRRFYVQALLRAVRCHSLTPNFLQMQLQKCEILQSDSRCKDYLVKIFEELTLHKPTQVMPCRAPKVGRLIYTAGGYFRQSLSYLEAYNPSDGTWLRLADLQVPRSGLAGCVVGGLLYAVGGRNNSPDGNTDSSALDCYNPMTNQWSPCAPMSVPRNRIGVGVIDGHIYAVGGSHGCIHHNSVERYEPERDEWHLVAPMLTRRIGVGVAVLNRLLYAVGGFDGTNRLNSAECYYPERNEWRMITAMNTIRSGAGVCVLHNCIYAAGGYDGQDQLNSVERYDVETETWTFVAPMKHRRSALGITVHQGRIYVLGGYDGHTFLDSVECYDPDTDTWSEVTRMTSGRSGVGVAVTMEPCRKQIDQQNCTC

[4] = target: T2, Nuclear factor erythroid 2-related factor 2 (Mus musculus) (UniProt Q60795); assay: Activation of Nrf2 in mouse BV-2 cells assessed as increase in GCLM mRNA expression by measuring fold change at 5 uM incubated for 3 hrs by qRT-PCR analysis; assay type: cell-based; conditions: filed as activator
T2 sequence (whole entry): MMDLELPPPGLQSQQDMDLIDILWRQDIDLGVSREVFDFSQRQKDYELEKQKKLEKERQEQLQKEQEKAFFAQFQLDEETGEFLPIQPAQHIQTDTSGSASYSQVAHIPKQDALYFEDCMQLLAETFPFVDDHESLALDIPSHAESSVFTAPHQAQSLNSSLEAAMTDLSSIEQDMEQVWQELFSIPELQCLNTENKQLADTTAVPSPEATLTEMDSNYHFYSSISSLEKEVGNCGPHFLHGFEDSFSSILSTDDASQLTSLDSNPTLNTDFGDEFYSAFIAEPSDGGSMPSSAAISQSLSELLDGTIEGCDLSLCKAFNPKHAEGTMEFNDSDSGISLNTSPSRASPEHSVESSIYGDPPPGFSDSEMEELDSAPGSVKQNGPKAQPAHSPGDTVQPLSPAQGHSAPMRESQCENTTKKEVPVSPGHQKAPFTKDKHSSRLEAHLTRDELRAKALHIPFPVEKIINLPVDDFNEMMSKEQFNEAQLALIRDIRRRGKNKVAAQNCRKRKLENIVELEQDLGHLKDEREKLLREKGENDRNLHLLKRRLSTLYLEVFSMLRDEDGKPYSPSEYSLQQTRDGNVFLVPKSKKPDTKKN

[5] = target: T2, Nuclear factor erythroid 2-related factor 2 (Mus musculus); assay: Activation of Nrf2 in mouse BV-2 cells assessed as increase in GCLC mRNA expression by measuring fold change at 5 uM measured for 3 hrs by qRT-PCR analysis; assay type: cell-based; conditions: filed as activator
[6] = target: T2, Nuclear factor erythroid 2-related factor 2 (Mus musculus); assay: Activation of Nrf2 pathway in mouse BV-2 cells assessed as fold increase in HO-1 level at 5 uM measured after 3 hrs by Western blot analysis; assay type: cell-based; conditions: filed as activator
[7] = tested on: BV-2; assay: Antiinflammatory activity against mouse BV-2 cells assessed as reduction in LPS-induced NO production at 20 uM incubated for 24 hrs by Griess reagent based assay relative to control; assay type: functional; design: scale not given: the % may be the effect or the level left
[8] = target: T1, Keap1/Nrf2; assay: Binding affinity to human Keap1-Nrf2 protein-protein interaction assessed as dissociation constant; assay type: protein assay
[9] = target: Keap1/Nrf2 (Homo sapiens, UniProt Q14145); assay: Inhibition of human Keap1 KELCH domain (321 to 609 residues) expressed in Escherichia coli BL21 DE3 pLysS cells/Nrf2 (unknown origin) protein-protein interaction preincubated with Keap1 for 1 hr followed by Nrf2 addition and measured after 1 hr by fluorescence polarization assay
Keap1/Nrf2 (Homo sapiens, UniProt Q14145), sequence (Q16236 whole entry, the tested form may be a part): as the sequence (Q16236 whole entry) above
Keap1/Nrf2 (Homo sapiens, UniProt Q14145), sequence (Q14145 whole entry, the tested form may be a part): as the sequence (Q14145 whole entry) above

[10] = tested on: HepG2-ARE-C8; assay: Activation of Nrf2-ARE pathway in human HepG2-ARE-C8 cells measured for 24 hrs by ARE-luciferase assay; assay type: cell-based; conditions: filed as activator

Amyloid-beta precursor protein, sequence (P05067 whole entry): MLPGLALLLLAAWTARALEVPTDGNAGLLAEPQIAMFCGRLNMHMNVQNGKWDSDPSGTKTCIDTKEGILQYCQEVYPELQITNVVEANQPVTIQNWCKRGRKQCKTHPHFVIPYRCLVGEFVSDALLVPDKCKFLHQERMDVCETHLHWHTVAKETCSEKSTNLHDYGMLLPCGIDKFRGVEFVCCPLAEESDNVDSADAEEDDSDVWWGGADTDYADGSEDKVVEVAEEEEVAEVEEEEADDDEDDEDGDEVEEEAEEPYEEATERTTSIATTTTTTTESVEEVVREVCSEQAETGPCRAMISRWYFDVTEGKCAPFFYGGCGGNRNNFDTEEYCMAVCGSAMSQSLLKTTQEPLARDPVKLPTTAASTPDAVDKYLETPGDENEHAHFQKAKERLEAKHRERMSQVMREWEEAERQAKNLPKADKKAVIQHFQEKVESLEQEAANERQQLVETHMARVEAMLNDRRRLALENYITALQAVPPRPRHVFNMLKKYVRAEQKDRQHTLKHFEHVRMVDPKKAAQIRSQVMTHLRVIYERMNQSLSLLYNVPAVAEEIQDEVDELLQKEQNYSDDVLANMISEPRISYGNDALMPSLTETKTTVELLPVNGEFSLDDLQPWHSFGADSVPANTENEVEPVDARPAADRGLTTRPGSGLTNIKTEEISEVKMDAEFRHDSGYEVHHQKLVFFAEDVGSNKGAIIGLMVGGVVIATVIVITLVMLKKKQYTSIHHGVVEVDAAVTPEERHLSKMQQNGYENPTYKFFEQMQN

IC50 [1]: 12.5 µM
Structure (SMILES): C=CCSC(=O)/C=C/c1ccc(O)c(O)c1

Structure (SMILES): Nc1ccc(Sc2nnc(COc3ccccc3)n2-c2ccccc2)nc1
CD [2]: 2.5 µM

Structure (SMILES): CNC(=O)[C@]12CCC(C)(C)C[C@H]1C1C(=O)C=C3[C@@]4(C)C=C(C#N)C(=O)C(C)(C)[C@@H]4CC[C@@]3(C)[C@]1(C)CC2 (some centres undefined)
CD [2]: 0.001 µM

Structure (SMILES): O=[N+]([O-])c1ccc(Sc2nnc(Cc3ccccc3)n2-c2ccccc2)nc1
CD [2]: 0.3 µM

Ki [3]: 6.15 µM
Structure (SMILES): O=C(NCC1CCCO1)C1CCC([N+](=O)[O-])S1 (centres undefined)

Structure (SMILES): CC1(C)CC[C@]2(C(=O)O)CC[C@]3(C)C(C(=O)C=C4[C@@]5(C)C=C(C(=O)O)C(=O)C(C)(C)[C@@H]5CC[C@]43C)[C@@H]2C1 (some centres undefined)
CD [2]: 0.22 µM

fold change (FC) [4]: 2.39
fold change (FC) [5]: 2.39
fold change (FC) [6]: 2.02
Structure (SMILES): CC(=O)O[C@H]1CC(C)(C)C(=C=C/C(C)=C/C=C/C(C)=C/C=C/C=C(C)/C=C/C=C(\C)C(=O)C[C@@]23O[C@]2(C)C[C@@H](O)CC3(C)C)[C@](C)(O)C1

Structure (SMILES): COc1ccccc1S(=O)(=O)/C=C/c1ccccc1Cl
Activity [7]: 15.2%

Structure (SMILES): COc1ccccc1S(=O)(=O)/C=C/c1ccccc1F
Activity [7]: 24%

Structure (SMILES): CC1(C)CC[C@]2(C#N)CC[C@]3(C)C(C(=O)C=C4[C@@]5(C)C=C(C#N)C(=O)C(C)(C)[C@@H]5CC[C@]43C)[C@@H]2C1 (some centres undefined)
CD [2]: 0.00027 µM

Structure (SMILES): COc1ccccc1S(=O)(=O)/C=C/c1ccc(Cl)cc1
Activity [7]: 31.5%

Structure (SMILES): COC(=O)[C@]12CCC(C)(C)C[C@H]1C1C(=O)C=C3[C@@]4(C)C=C(C#N)C(=O)C(C)(C)[C@@H]4CC[C@@]3(C)[C@]1(C)CC2 (some centres undefined)
CD [2]: 0.001 µM

Structure (SMILES): O=[N+]([O-])c1ccc(Sc2nnc(COc3ccccc3)n2-c2ccccc2)cc1
CD [2]: 10 µM

Structure (SMILES): COC(=O)[C@]12CCC(C)(C)C[C@H]1C1C(=O)C=C3[C@@]4(C)C=C(C(=O)O)C(=O)C(C)(C)[C@@H]4CC[C@@]3(C)[C@]1(C)CC2 (some centres undefined)
CD [2]: 0.018 µM

Structure (SMILES): COc1ccccc1S(=O)(=O)/C=C/c1cccc(Cl)c1
Activity [7]: 32.1%

Kd [8]: < 30 µM
Structure (SMILES): [H]/N=C(\N/C(=N/[H])NCCCCCCNC(=N)NC(=N)Nc1ccc(Cl)cc1)Nc1ccc(Cl)cc1 [CHLORHEXIDINE]

Structure (SMILES): CC1(C)CC[C@]2(C(=O)O)CC[C@]3(C)C(C(=O)C=C4[C@@]5(C)C=CC(=O)C(C)(C)[C@@H]5CC[C@]43C)[C@@H]2C1 (some centres undefined)
CD [2]: 0.28 µM

Structure (SMILES): O=[N+]([O-])c1ccc(Sc2nnc(COc3ccccc3)n2-c2ccccc2)nc1
CD [2]: 2.5 µM

Structure (SMILES): COc1ccccc1S(=O)(=O)/C=C/c1ccccc1C(F)(F)F
Activity [7]: 29.9%

IC50 [9]: 0.0257 µM
Structure (SMILES): COc1ccc(S(=O)(=O)Nc2ccc(N(CC(N)=O)S(=O)(=O)c3ccc(OC)cc3)c3ccccc23)cc1
Activity [10]: 1.8 nM

Structure (SMILES): O=[N+]([O-])c1ccc(Sc2nnc(COc3ccccc3)[nH]2)nc1
CD [2]: 7.5 µM
